Reference: patent US20240358015A1, “HERBICIDAL COMPOSITIONS” (Agrematch Ltd., priority 2021, published 2024)

Columns and labels:
[1] = tested on: Setaria viridis; test: Growth-chamber post-emergence herbicidal assay (Example 2); format: in vivo; settings: 1000 g/ha, 3-4 days after application
Procedure: (§1) Herbicidal activity was determined by post-emergence application on 8-day old plants (weeds) of the Amaranthus palmeri and Setaria viridis species that were grown at 16 hours/8 hours day/night cycles at 30° C./25° C., respectively. Leaf stage was typically 4-6 for A. palmeri and 3-4 for S. viridis.
In each treatment, 2-3 pots, each containing about 5 plants each (for Setaria viridis), and one 9-pack, containing about 9 plants (for Amaranthus palmeri), were sprayed using a VL-SET Paasche Airbrush with 0.3-1.5 ml solution containing 0.125-2 mg/ml of a tested compound, which is equivalent to about 125-2000 g/ha.
(§2) Damage assessment: Herbicidal activity was assessed and scored 3-4 days after application by visual inspection of the plants in comparison to plants treated with the formulation alone (with no active ingredient) as control. Activity score is in the range of 0 to 100, where 0 represents no herbicidal activity like control plants and 100 represents the maximal herbicidal activity (i.e., total death of the plant).
Herbicidal activity scores 3-4 days after application are presented Table 3 below.

[2] = tested on: Echinochloa colonum; test: Growth-chamber post-emergence assay on additional weeds (Example 2); format: in vivo; settings: 1000 g/ha; 13-day old plants; 3 days after application; scale 0-100
Procedure: (§3) Herbicidal activity of Compound 1 was determined by post-emergence application on 13-day old Echinochloa colonum, Lolium multiflorum and Solanum nigrum.
(§4) In each treatment, 3 pots, each containing about 5 plants, were sprayed using the same conditions as described above which are equivalent to 1000 g/ha. Herbicidal activity was assessed and scored 3 days after application by visual inspection of the weeds. Activity score is in the range of 0 to 100, where 0 represents no herbicidal activity like control plants and 100 represents the maximal herbicidal activity (i.e., total death of the plant). The obtained data is presented in Table 6 below per the activity score as described herein.

[3] = tested on: Lolium multiflorum; test: as above; format: in vivo; settings: 1000 g/ha; 13-day old plants; 3 days after application; scale 0-100
Procedure: as §3, §4

[4] = tested on: Solanum nigrum; test: as above; format: in vivo; settings: 1000 g/ha; 13-day old plants; 3 days after application; scale 0-100
Procedure: as §3, §4

[5] = tested on: Amaranthus palmeri; test: Growth-chamber post-emergence assay, low application rates (Example 5); format: in vivo
Procedure: as §1, with “activity of Compound 1” for “activity”
(§5) In each treatment, between 1 to 3 pots (8×12 cm), containing about 6 Amaranthus palmeri or Setaria viridis plants, were sprayed using a VL-SET Paasche Airbrush with a 1 ml-solution containing 0.1-0.375 mg/ml of the tested compound, which is equivalent to about 100-375 g/ha.
as §2

[6] = tested on: Setaria viridis; test: as above; format: in vivo
Procedure: as §1, with “activity of Compound 1” for “activity”
as §5, §2

[7] = tested on: A. palmeri; test: Growth-chamber post-emergence assay on various weed species (Example 7); format: in vivo, Amaranthus palmeri; settings: 0.05% Break-Thru, 3-4 days after application
Procedure: (§6) Herbicidal activity of Compound 1 was determined by post-emergence application on various weed species. 8-14 day old plants (weeds) were grown at 16 hours/8 hours day/night cycles at 30° C./25° C., respectively. Leaf stage was typically 2-6.
(§7) In each treatment, 3 pots (either 7×7 or 8×12 cm), containing about 3-6 plants each, were sprayed using a VL-SET Paasche Airbrush with a 1-1.5 ml-solution containing 0.5-1.5 mg/ml of the tested compound, which is equivalent to about 500-1500 g/ha.
as §2

[8] = tested on: S. nigrum; test: as above; format: in vivo, Solanum nigrum; settings: 0.05% Break-Thru
Procedure: as §6, §7, §2

[9] = tested on: Resistant A. rudis (target-site resistant to HRAC class 5); test: Net-house assay with resistant weeds (Example 9); format: in vivo, Amaranthus rudis; settings: 1,500 g/ha, 13 days after application, scale 0-100
Procedure: (§8) Herbicidal activity of Compound 1 was determined by post-emergence application in both Growth-chamber and Net-house conditions. Growing conditions were as described in Examples 6 and 8 above.
(§9) The assay was performed on 13-15 day old plants (weeds) of Amaranthus rudis that were either target-site resistant or sensitive to HRAC class 5. In each treatment, 3 pots (8×12 cm), containing about 6 Amaranthus Rudis plants, were sprayed using a VL-SET Paasche Airbrush with a 1 ml-solution.
as §2, with “13” for “3-4”

[10] = tested on: Sensitive A. rudis; test: Net-house assay with resistant weeds (Example 9); format: in vivo, Amaranthus rudis; settings: 1,500 g/ha, 13 days after application, scale 0-100
Procedure: as §8, §9
as §2, with “13” for “3-4”

[11] = 125 g/ha, 0.8% MIPA, 0.25% Genapol, 2% DASH EC
[12] = 125 g/ha, 0.8% MIPA, 2% DASH EC
[13] = 150 g/ha, 0.8% MIPA, 0.25% Genapol, 1% AGNIQUE, 0.05% Ca-LAS, 0.02% BSU
[14] = 150 g/ha, 0.8% MIPA, 0.25% Genapol, 2% HASTEN
[15] = 200 g/ha, 0.21% MIPA, 0.25% Genapol, 1% AGNIQUE, 0.05% Ca-LAS, 0.02% BSU
[16] = 200 g/ha, 0.8% MIPA, 0.25% Genapol, 1% AGNIQUE, 0.05% Ca-LAS, 0.02% BSU
[17] = 375 g/ha, 0.8% MIPA, 0.25% Genapol, 1% AGNIQUE, 0.05% Ca-LAS, 0.02% BSU
[18] = 375 g/ha, 0.8% MIPA, 2% TWEEN20, 1% AGNIQUE, 0.05% Ca-LAS, 0.02% BSU, 0.05% Break-Thru, 3-4 days after application, scale 0-100
[19] = 750 g/ha, 0.2% MIPA, 2% TWEEN20, 1% AGNIQUE, 0.05% Ca-LAS, 0.02% BSU
[20] = 1500 g/ha, 0.8% MIPA, 0.25% Genapol, 2% HASTEN

Work on O=C(O)c1cc(O)c2c(c1)C(=O)c1cccc(O)c1C2=O [Compound 1, Rhein] yielded a Herbicidal activity score ([1]; 1 mg/ml in 0.015% Ammonium hydroxide, 0.25% Adsee) of 10, a Herbicidal activity score ([1]; 1 mg/ml in 0.015% Ammonium hydroxide, 0.25% Genapol X-080) of 70 and a Herbicidal activity score ([1]; 1 mg/ml in 0.015% Ammonium hydroxide, 0.7% Sodium Lauryl Ether sulfate) of 100. For the same compound, the Herbicidal activity score ([1]; 1 mg/ml in 0.015% Ammonium hydroxide, 1% AGNIQUE, 0.05% Ca-LAS, 0.02% BSU) was 70, the Herbicidal activity score ([1]; 1 mg/ml in 0.015% Ammonium hydroxide, 2% Tween 20, scale 0-100) was 80 and the Herbicidal activity score ([1]; 1 mg/ml in 0.037% MIPA, 0.25% Adsee) was 40. It also gave a Herbicidal activity score ([1]; 1 mg/ml in 0.037% MIPA, 0.25% Genapol X-080) of 100, a Herbicidal activity score ([1]; 1 mg/ml in 0.037% MIPA, 0.7% Sodium Lauryl Ether sulfate) of 100 and a Herbicidal activity score ([1]; 1 mg/ml in 0.037% MIPA, 1% AGNIQUE, 0.05% Ca-LAS, 0.02% BSU) of 70. For the same compound, the Herbicidal activity score ([1]; 1 mg/ml in 0.037% MIPA, 2% Tween 20) was 100, the “Activity Score” value ([1]; 2% TWEEN 20, 5.2 mM Ammonium hydroxide, 0.05% Break-Thru, scale 0-100) was 90 and the Activity Score [2] was 70. The Activity Score [3] was 50, the Activity Score [4] was 60 and the Herbicidal activity score ([5]; 100 g/ha, 0.8% MIPA, 0.25% Genapol, 2% DASH EC) was 90. The Herbicidal activity score [5, 11] was 93, the Herbicidal activity score [5, 12] was 65 and the Herbicidal activity score [5, 13] was 85. The Herbicidal activity score [5, 14] was 85, the Herbicidal activity score [5, 15] was 93 and the Herbicidal activity score [5, 16] was 98. For the same compound, the Herbicidal activity score ([5]; 250 g/ha, 0.02% MIPA, 2% TWEEN20, 2% AGNIQUE, 0.1% Ca-LAS, 0.04% BSU, 0.05% Break-Thru) was 90, the Herbicidal activity score [5, 17] was 97 and the Herbicidal activity score [5, 18] was 100. For the same compound, the Herbicidal activity score [6, 11] was 23, the Herbicidal activity score [6, 12] was 43 and the Herbicidal activity score [6, 13] was 70. It also gave a Herbicidal activity score [6, 14] of 65, a Herbicidal activity score [6, 15] of 65 and a Herbicidal activity score [6, 16] of 88. It also gave a Herbicidal activity score [6, 17] of 78, a Herbicidal activity score [6, 18] of 75 and a Herbicidal activity score ([7]; 500 g/ha, 0.8% MIPA, 0.25% Genapol, 1% AGNIQUE, 0.05% Ca-LAS, 0.02% BSU, scale 0-100) of 100. It also gave a Herbicidal activity score [7, 19] of 100, a Herbicidal activity score [7, 20] of 100 and a Herbicidal activity score [8, 19] of 95. The Herbicidal activity score [8, 20] was 100, the Herbicidal activity score [9] was 100 and the Herbicidal activity score [10] was 100.
